In DBAASP:
Values after ≈ are worked out from the molar mass of the structure shown.

Key:
Assay in all cases: ≥ marks a high value that may be exact or a test limit, other limits are often not marked, values filed in µg/mL are converted to µM
[1] = tested on: Acinetobacter baumannii ATCC 19606
[2] = tested on: Staphylococcus aureus ATCC 29213
[3] = tested on: Enterococcus faecalis ATCC 29212
[4] = tested on: Escherichia coli ATCC 25922
[5] = tested on: Staphylococcus aureus
[6] = tested on: Pseudomonas aeruginosa ATCC 27853
[7] = tested on: Staphylococcus aureus ATCC 25923
[8] = tested on: Staphylococcus epidermidis ATCC 12228
[9] = tested on: Candida albicans ATCC 90028

| MIC [1] [µM] | MIC [2] [µM] | MIC [3] [µM] | MIC [4] [µM] | MIC [5] [µM] | MIC [6] [µM] | MIC [7] [µM] | MIC [8] [µM] | MIC [9] [µM] | SMILES |
| --- | --- | --- | --- | --- | --- | --- | --- | --- | --- |
| > 29.9 | 37.4 (≈ 50 µg/mL) | – | – | – | – | – | – | – | CC[C@H](C)[C@H](NC(=O)[C@H](CCCCN)NC(=O)[C@H](CO)NC(=O)[C@H](CC(C)C)NC(=O)[C@H](CC(C)C)NC(=O)CNC(=O)[C@H](C)NC(=O)[C@@H](NC(=O)[C@H](C)NC(=O)CNC(=O)[C@@H](NC(=O)[C@@H](N)Cc1ccccc1)[C@@H](C)CC)C(C)C)C(=O)N[C@@H](Cc1ccccc1)C(N)=O [FIGAVAGLLSKIF] |
| > 64 | 16 (≈ 27.7 µg/mL) | > 64 | > 64 | 64 (≈ 111 µg/mL) | – | – | – | – | CC[C@H](C)[C@H](NC(=O)[C@H](Cc1ccccc1)NC(=O)[C@@H]1CCCN1C(=O)[C@@H](NC(=O)[C@@H](N)CC(C)C)C(C)C)C(=O)NCC(=O)N[C@@H](CCCN=C(N)N)C(=O)N[C@H](C(=O)N[C@@H](CC(C)C)C(=O)NCC(=O)NCC(=O)N[C@@H](CC(C)C)C(=O)N[C@@H](CC(C)C)C(=O)N[C@@H](C)C(=O)N[C@@H](CCCN=C(N)N)C(=O)N[C@@H](Cc1ccccc1)C(N)=O)[C@@H](C)O [LVPFIGRTLGGLLARF] |
| 14.1 (≈ 16 µg/mL) | – | – | 28.2 (≈ 32 µg/mL) | – | 7.06 (≈ 7.99 µg/mL) | 14.1 (≈ 16 µg/mL) | – | – | CSCC[C@H](NC(=O)[C@H](CCCCN)NC(=O)[C@H](CC(C)C)NC(=O)[C@@H](N)Cc1ccccc1)C(=O)N[C@@H](CC(C)C)C(=O)N[C@@H](CCCCN)C(=O)N[C@@H](CCCCN)C(=O)N[C@@H](CC(C)C)C(=O)N[C@@H](CC(C)C)C(N)=O [FLKMLKKLL] |
| – | – | – | 62 (≈ 133 µg/mL) | – | 62 (≈ 133 µg/mL) | 62 (≈ 133 µg/mL) | 7.69 (≈ 16.5 µg/mL) | – | CC(C)C[C@H](NC(=O)[C@H](CC(C)C)NC(=O)[C@H](CCCCN)NC(=O)[C@@H](N)Cc1c[nH]c2ccccc12)C(=O)N[C@@H](CO)C(=O)N[C@@H](CCCCN)C(=O)N[C@@H](C)C(=O)N[C@@H](CCC(N)=O)C(=O)N[C@@H](CCC(=O)O)C(=O)N[C@@H](CCCCN)C(=O)N[C@@H](Cc1ccccc1)C(=O)NCC(=O)N[C@@H](CCCCN)C(=O)N[C@@H](CC(N)=O)C(=O)N[C@@H](CCCCN)C(=O)N[C@@H](CO)C(=O)N[C@@H](CCCN=C(N)N)C(=O)N[C@@H](CS)C(N)=O [WKLLSKAQEKFGKNKSRC] |
| > 121 | – | – | 121 (≈ 128 µg/mL) | – | 7.55 (≈ 7.99 µg/mL) | 121 (≈ 128 µg/mL) | – | – | CC(C)C[C@H](NC(=O)[C@H](CC(C)C)NC(=O)[C@H](CCCCN)NC(=O)[C@H](CCCCN)NC(=O)[C@H](CC(C)C)NC(=O)CNC(=O)[C@H](CCCCN)NC(=O)[C@H](CC(C)C)NC(=O)[C@@H](N)Cc1ccccc1)C(N)=O [FLKGLKKLL] |
| – | – | – | 50 (≈ 131 µg/mL) | – | – | 1.5 (≈ 3.93 µg/mL) | – | 3 (≈ 7.86 µg/mL) | CC[C@H](C)[C@@H]1NC(=O)[C@H](Cc2ccccc2)NC(=O)[C@@H](NC(=O)[C@H](Cc2ccccc2)NC(=O)[C@@H](NC(=O)[C@H](CCCCN)NC(=O)[C@@H]2CCCN2C(=O)[C@H](CC(C)C)NC(=O)[C@@H](NC(=O)[C@H](CCCCN)NC(=O)[C@H](C)NC(=O)[C@H](C)NC(=O)[C@@H](NC(=O)[C@H](CO)NC(=O)[C@H](C)NC(=O)[C@@H](NC(=O)[C@@H](NC(=O)[C@@H]2CCCN2C(=O)[C@H](CC(C)C)NC(=O)[C@@H](N)Cc2ccccc2)C(C)C)[C@@H](C)CC)C(C)C)C(C)C)C(C)C)CSSC[C@@H](C(=O)O)NC(=O)[C@H](CCCCN)NC(=O)[C@H](CCCCN)NC(=O)[C@H]([C@@H](C)O)NC1=O [FLPVIASVAAKVLPKVFCFITKKC] |
| – | – | – | – | – | – | – | – | ≥ 100 | CC[C@H](C)[C@H](NC(=O)[C@H](CCCCN)NC(=O)[C@H](CC(=O)O)NC(=O)[C@H](CC(C)C)NC(=O)[C@@H](NC(=O)[C@H](CC(N)=O)NC(=O)[C@@H](NC(=O)[C@H](Cc1ccccc1)NC(=O)[C@H](CC(C)C)NC(=O)[C@H](CCCCN)NC(=O)[C@H](CCCCN)NC(=O)CN)C(C)C)C(C)C)C(=O)N[C@@H](CCCN=C(N)N)C(=O)N[C@H]1CSSC[C@@H](C(=O)O)NC(=O)CNC(=O)CNC(=O)[C@H](C)NC(=O)[C@H](C(C)C)NC(=O)[C@H](CCCCN)NC1=O [GKKLFVNVLDKIRCKVAGGC] |
